Experiments:
Assay in all cases: NCI tumor cell line screen (SRB assay)
Type in all cases: cell-based
Set-up in all cases: activity: dose or concentration left out as unconfirmed
[1] = tested on: NCI-H226; conditions: Homo sapiens, read-out: PERCENT GROWTH
Experimental: (§1) The National Cancer Institute carried out the studies at the direction of the present inventor.
(§2) In the tests, the National Cancer Institute used the SRB (sulforhodamine B) assay as described by Skehan et al., (Journal of the National Cancer Institute, 82:13, Jul. 4, 1990, 1107-1112). Briefly, the assay is as follows. TCA-fixed cells were stained for 30 minutes with 0.4% (wt/vol) SRB dissolved in 1% acetic acid. At the end of the staining period, SRB was removed and cultures were quickly rinsed four times with 1% acetic acid to remove unbound dye. The acetic acid was poured directly into the culture wells from a beaker. […] Residual wash solution was removed by sharply flicking plates over a sink, which ensured the complete removal of rinsing solution. […] After being rinsed, the cultures were air dried until no standing moisture was visible. Bound dye was solubilized with 10 mM unbuffered Tris base (pH 10.5) for 5 minutes on a gyratory shaker.
(§3) Optical density (OD) was read in either a UVmax microtiter plate reader (Molecular Devices, Menlo Park, Calif.) or a Beckman DU-70 spectrophotometer. For maximum sensitivity, OD was measured at 564 nm. Because readings were linear with dye concentrations only below 1.8 OD units, however, suboptimal wavelengths were generally used, so that all samples in an experiment remained within the linear OD range. With most cell lines, wavelengths of approximately 490-530 nm worked well for this purpose.
(§4) Nine different non-small cell lung carcinoma cell lines, six different colon carcinoma cell lines, six different CNS (central nervous system) carcinoma cell lines, seven different melanoma cell lines, six different ovarian carcinoma cell lines, and eight different renal carcinoma cell lines were tested.

[2] = tested on: NCI-H522; conditions: Homo sapiens, read-out: PERCENT GROWTH
Experimental: as §1, §2, §3, §4

[3] = tested on: SF-539; conditions: Homo sapiens, read-out: PERCENT GROWTH
Experimental: as §1, §2, §3, §4

[4] = tested on: SK-MEL-2; conditions: Homo sapiens, read-out: PERCENT GROWTH
Experimental: as §1, §2, §3, §4

[5] = tested on: PK-10; conditions: Homo sapiens, read-out: PERCENT GROWTH
Experimental: as §1, §2, §3, §4

[6] = tested on: HOP-92; conditions: Homo sapiens, read-out: PERCENT GROWTH
Experimental: as §1, §2, §3, §4

[7] = tested on: OVCAR-3; conditions: Homo sapiens, read-out: PERCENT GROWTH
Experimental: as §1, §2, §3, §4

[8] = tested on: NCI-H460; conditions: Homo sapiens, read-out: PERCENT GROWTH
Experimental: as §1, §2, §3, §4

[9] = tested on: UACC-62; conditions: Homo sapiens, read-out: PERCENT GROWTH
Experimental: as §1, §2, §3, §4

[10] = tested on: SW-620; conditions: Homo sapiens, read-out: PERCENT GROWTH
Experimental: as §1, §2, §3, §4

[11] = tested on: SNB-19; conditions: Homo sapiens, read-out: PERCENT GROWTH
Experimental: as §1, §2, §3, §4

[12] = tested on: HT29; conditions: Homo sapiens, HT-29, read-out: PERCENT GROWTH
Experimental: as §1, §2, §3, §4

[13] = tested on: OVCAR-8; conditions: Homo sapiens, read-out: PERCENT GROWTH
Experimental: as §1, §2, §3, §4

[14] = tested on: M14; conditions: Homo sapiens, read-out: PERCENT GROWTH
Experimental: as §1, §2, §3, §4

[15] = tested on: NCI-H23; conditions: Homo sapiens, read-out: PERCENT GROWTH
Experimental: as §1, §2, §3, §4

[16] = tested on: RXF 393; conditions: Homo sapiens, read-out: PERCENT GROWTH
Experimental: as §1, §2, §3, §4

[17] = tested on: UO-31; conditions: Homo sapiens, read-out: PERCENT GROWTH
Experimental: as §1, §2, §3, §4

[18] = tested on: HCC-2998; conditions: Homo sapiens, read-out: PERCENT GROWTH
Experimental: as §1, §2, §3, §4

## CCCCN1C(=O)CC(=O)N(CCCC)C1=S [Compound C1, 4,6(1H, 5H)-pyrimidinedione, 1,3-dibutyldihydro-2-thioxo]
[1]; 10^-3.0 Molar
  activity: -39%
[1]; 10^-4.0 Molar
  activity at 100 µM: 90%
[1]; 10^-5.0 Molar
  activity at 10 µM: 106%
[1]; 10^-6.0 Molar
  activity at 1 µM: 100%
[1]; 10^-7.0 Molar
  activity at 0.1 µM: 96%
[2]; 10^-3.0 Molar
  activity: -82%
[2]; 10^-4.0 Molar
  activity at 100 µM: 47%
[2]; 10^-5.0 Molar
  activity at 10 µM: 104%
[2]; 10^-6.0 Molar
  activity at 1 µM: 102%
[2]; 10^-7.0 Molar
  activity at 0.1 µM: 100%
[3]; 10^-3.0 Molar
  activity: -100%
[3]; 10^-4.0 Molar
  activity at 100 µM: 72%
[3]; 10^-5.0 Molar
  activity at 10 µM: 101%
[3]; 10^-6.0 Molar
  activity at 1 µM: 104%
[3]; 10^-7.0 Molar
  activity at 0.1 µM: 95%
[4]; 10^-3.0 Molar
  activity: -55%
[4]; 10^-4.0 Molar
  activity at 100 µM: 87%
[4]; 10^-5.0 Molar
  activity at 10 µM: 100%
[4]; 10^-6.0 Molar
  activity at 1 µM: 106%
[4]; 10^-7.0 Molar
  activity at 0.1 µM: 110%
[5]
  activity: -19%
  activity at 0.1 µM: 94%
  activity at 1 µM: 94%
  activity at 10 µM: 98%
  activity at 100 µM: 74%
[6]; 10^-3.0 Molar
  activity: -70%
[6]; 10^-4.0 Molar
  activity at 100 µM: 51%
[6]; 10^-5.0 Molar
  activity at 10 µM: 104%
[6]; 10^-6.0 Molar
  activity at 1 µM: 110%
[6]; 10^-7.0 Molar
  activity at 0.1 µM: 104%
[7]; 10^-3.0 Molar
  activity: -93%
[7]; 10^-4.0 Molar
  activity at 100 µM: 89%
[7]; 10^-5.0 Molar
  activity at 10 µM: 110%
[7]; 10^-6.0 Molar
  activity at 1 µM: 114%
[7]; 10^-7.0 Molar
  activity at 0.1 µM: 110%
[8]; 10^-3.0 Molar
  activity: -54%
[8]; 10^-4.0 Molar
  activity at 100 µM: 82%
[8]; 10^-5.0 Molar
  activity at 10 µM: 97%
[8]; 10^-6.0 Molar
  activity at 1 µM: 100%
[8]; 10^-7.0 Molar
  activity at 0.1 µM: 99%
[9]; 10^-3.0 Molar
  activity: -79%
[9]; 10^-4.0 Molar
  activity at 100 µM: 53%
[9]; 10^-5.0 Molar
  activity at 10 µM: 88%
[9]; 10^-6.0 Molar
  activity at 1 µM: 91%
[9]; 10^-7.0 Molar
  activity at 0.1 µM: 94%
[10]; 10^-3.0 Molar
  activity: -39%
[10]; 10^-4.0 Molar
  activity at 100 µM: 85%
[10]; 10^-5.0 Molar
  activity at 10 µM: 99%
[10]; 10^-6.0 Molar
  activity at 1 µM: 100%
[10]; 10^-7.0 Molar
  activity at 0.1 µM: 110%
[11]; 10^-3.0 Molar
  activity: -54%
[11]; 10^-4.0 Molar
  activity at 100 µM: 90%
[11]; 10^-5.0 Molar
  activity at 10 µM: 109%
[11]; 10^-6.0 Molar
  activity at 1 µM: 99%
[11]; 10^-7.0 Molar
  activity at 0.1 µM: 105%
[12]; 10^-3.0 Molar
  activity: -96%
[12]; 10^-4.0 Molar
  activity at 100 µM: 76%
[12]; 10^-6.0 Molar
  activity at 1 µM: 103%
[12]; 10^-7.0 Molar
  activity at 0.1 µM: 102%
[13]; 10^-3.0 Molar
  activity: -49%
[13]; 10^-4.0 Molar
  activity at 100 µM: 81%
[13]; 10^-5.0 Molar
  activity at 10 µM: 108%
[13]; 10^-6.0 Molar
  activity at 1 µM: 106%
[13]; 10^-7.0 Molar
  activity at 0.1 µM: 102%
[14]; 10^-3.0 Molar
  activity: -100%
[14]; 10^-4.0 Molar
  activity at 100 µM: 94%
[14]; 10^-5.0 Molar
  activity at 10 µM: 105%
[14]; 10^-6.0 Molar
  activity at 1 µM: 100%
[14]; 10^-7.0 Molar
  activity at 0.1 µM: 106%
[15]; 10^-3.0 Molar
  activity: -62%
[15]; 10^-4.0 Molar
  activity at 100 µM: 63%
[15]; 10^-5.0 Molar
  activity at 10 µM: 98%
[15]; 10^-6.0 Molar
  activity at 1 µM: 103%
[15]; 10^-7.0 Molar
  activity at 0.1 µM: 97%
[16]; 10^-3.0 Molar
  activity: -85%
[16]; 10^-4.0 Molar
  activity at 100 µM: 43%
[16]; 10^-5.0 Molar
  activity at 10 µM: 86%
[16]; 10^-6.0 Molar
  activity at 1 µM: 93%
[16]; 10^-7.0 Molar
  activity at 0.1 µM: 93%
[17]; 10^-3.0 Molar
  activity: -75%
[17]; 10^-4.0 Molar
  activity at 100 µM: 63%
[17]; 10^-5.0 Molar
  activity at 10 µM: 92%
[17]; 10^-6.0 Molar
  activity at 1 µM: 99%
[17]; 10^-7.0 Molar
  activity at 0.1 µM: 92%
[18]; 10^-3.0 Molar
  activity: -82%
[18]; 10^-5.0 Molar
  activity at 10 µM: 109%
[18]; 10^-7.0 Molar
  activity at 0.1 µM: 113%
